{
  "source": "patent US11147875B2",
  "about": "“Compositions, combinations and related methods for photoimmunotherapy” (priority 2015, dated 2021)",
  "key": {"[1]": {"test_system": "human iDCs", "assay": "DC activation after priming with PIT-killed FaDu cells and Poly I:C treatment", "format": "cell-based", "details": "1 μg/mL overnight, DCs primed with FaDu cells PIT-killed with Cetuximab IRDye 700DX, vs no light controls", "experimental": "FaDu cells grown in complete EMEM media were plated in 100 μL total volume per well in a 96 well tissue culture plate for adherence overnight. […] PIT cell killing was induced by illumination with a 690 nm laser light at a fluence of 12 J/cm^2. The controls represented wells corresponding to the groups not treated with light.\nFor co-culture, human iDCs (Astarte Biologics) from a healthy donor were directly added into the wells with PIT killed tumor cells and into control wells (non-PIT treated tumor cells). The co-cultures were then incubated for 48 hours at 37° C. in the CO2 incubator. The harvested DCs were then subjected to poly I:C treatment (1 μg/mL) for overnight. The cells were then detached using a non-enzymatic detachment solution.\nThe harvested cells from various treatment conditions were incubated with live/dead discrimination dye Zombie Green (BioLegend, 1:500) for 20 min at room temperature followed by washing with stain buffer. Cells were resuspended in stain buffer and human Fc blocking reagent (BD) was then added and cells were incubated for 20 min at room temperature. […]\nAppropriate gating was performed while analyzing the data to exclude cell debris, and the data was analyzed with gating performed on live events. The results described below are based on median fluorescence intensity (MFI) data from each group which is plotted as fold increase over the no light controls."}, "[2]": {"test_system": "BxPC3 pancreatic cancer cells", "assay": "In vitro PIT with panitumumab conjugates", "format": "cell-based", "details": "10 μg/mL; for killing: 8 J/cm^2 at 690 nm", "experimental": "The two conjugates were tested for efficiency in killing cells in an in vitro PIT assay using the pancreatic cancer line BxPC3. BxPC3 were seeded into 96-well white-wall plates (4,000 cells/well) the day before the experiment. Antibody conjugates were added to cells at a concentration of 10 μg/mL and were incubated for 2 hours at 37° C. Light of 690 nm was applied by a diode at a constant power output of 50 mW/cm^2. The illumination time was modulated to achieve the fluences 4 J/cm^2, 8 J/cm^2 or 16 J/cm^2. As a control, a group of cells was not irradiated with light (0 J/cm^2). To monitor the progression of cell death after light treatment, the conjugate containing medium was replaced by fresh medium containing CellTox Green (Promega), a dye that reports cell death based on compromised cell membrane integrity. Time dependent increase in cell death was observed over 24 hours."}, "[3]": {"test_system": "A431 cells", "assay": "EGF-IRDye 700DX light-dependent killing", "format": "cell-based", "details": "for light-dependent killing: 24 hours", "experimental": "Photo-activated EGF-IR700 cell killing was assessed in A431 cells. A431 cells were seeded at 5000 cells per well in 96 well white clear bottom dishes one day prior to the experiment. The following day, the A431 cells were washed three times with EMEM supplemented with 1% Penicillin/Streptomycin (serum free media). The A431 cells were then washed one time with serum free media, then incubated with serum free media containing 1 μg/mL of EGF-IRDye 700DX for one hour at 4° C. or serum free media only. […] The cells were then washed one time with serum free media.\nTo induce IR700-dependent killing, the cells were then illuminated with a 690 nm laser with 32 J/cm^2 of light or protected from light (“no light”). Cell death was evaluated as described in Example 6 using CellTox Green. The normalized percentage of dead cells was calculated by subtracting all wells by the percentage of dead cells from the no light serum free media only control, dividing by EGF-IRDye 700DX at 32 J/cm^2 minus the no light serum free media only control, and multiplied 100.\nThe effect of EGF-IRDye 700DX pre-exposure to white light versus green light on photo-activated cell killing was also evaluated in A431 cells. EGF-IRDye 700DX was pre-exposed to different types of light and the effect of light treatment on photo-activated killing activity was evaluated. Five microliters of EGF-IRDye 700DX conjugate (DAR 2) was added per clear HPLC vial at a EGF-IRDye 700DX concentration of 1.14 mg/mL. The following conditions were tested: (1) the antibody-IRDye 700DX conjugate stored at 4° C. protected from light (“4° C.”, used as the control); (2) antibody-IRDye 700DX conjugate placed in a clear glass HPLC tube under a Halogen lamp at 2500 lux for 24 hrs (“white light”); (3) antibody-IRDye 700DX conjugate placed in a clear glass HPLC tube wrapped in aluminum foil to protect from light exposure under Halogen lamp at 2500 lux for 24 hrs (“no light”), used as a control for thermal heating effects on the formation of aggregates); and (4) antibody-IRDye 700DX conjugate placed in a clear glass HPLC tube and exposed to green LED lamp at 2500 lux for 24 hrs (“green light”).\nTo assess cell killing activity, A431 cells were washed two times with serum free media, and incubated in serum free media alone for one hour at 4° C. The cells were then washed one time with serum free media and incubated with serum free media alone or serum free media containing 1 μg/mL of EGF-IRDye 700DX (“no light”), serum free media containing 1 μg/mL of EGF-IRDye 700DX pre-exposed to white light (“2500 Lux White light”), or serum free media containing 1 μg/mL EGF-IRDye 700DX pre-exposed to green light for one hour at 4° C. (“2500 Lux Green light”). The cells were then washed one time with serum free media.\nTo induce cell killing, the cells were either protected from light (light dose 0 J/cm^2) or were illuminated with a 690 nm laser with different light dosimetries (8 J/cm^2, 32 J/cm^2 or 64 J/cm^2)."}, "[4]": {"details": "in vivo, 400 mg/m2; cited from earlier work"}, "[5]": {"details": "cited from earlier work"}},
  "note": "Read-outs that look alike come from different tables or passages of the source.",
  "data": [
    {"molecule": "Poly I:C", "values": [
      {"measurement": "CD80 and CD86 expression levels", "setting": "[1]", "value": "increased CD80 and CD86 expression levels"}
    ]},
    {"molecule": "Pan-IRDye 700DX: anti-human EGFR antibody drug panitumumab conjugated only with IRDye 700DX", "values": [
      {"measurement": "cell killing", "setting": "[2]; 4 J/cm^2 at 690 nm", "value": "only marginally effective"},
      {"measurement": "killing", "setting": "[2]", "value": 74, "unit": "%"},
      {"measurement": "cell killing", "setting": "[2]; 16 J/cm^2 at 690 nm", "value": "near complete cell killing"}
    ]},
    {"molecule": "Pan-IRDye 700DX-Alexa-488: panitumunab conjugated both to IRDye 700DX and Alexa Fluor 488", "values": [
      {"measurement": "cell killing", "setting": "[2]; 4 J/cm^2 at 690 nm", "value": "only marginally effective"},
      {"measurement": "killing", "setting": "[2]", "value": 73, "unit": "%"},
      {"measurement": "cell killing", "setting": "[2]; 16 J/cm^2 at 690 nm", "value": "near complete cell killing"}
    ]},
    {"molecule": "EGF-IRDye 700DX: human recombinant epidermal growth factor (EGF) conjugated to IRDye 700DX (NSDSECPLSHDGYCLHDGVCMYIEALDKYACNCVVGYIGERCQYRDLKWWELR; Epidermal growth factor IRDye 700DX dye; UniProt P01133 971-1023, looked up)", "values": [
      {"measurement": "cell killing", "setting": "[3]; 1 μg/mL, 32 J/cm^2 vs no light", "value": "light-dependent killing"},
      {"measurement": "cell killing", "setting": "[3]; cells pre-exposed to 100 μg/mL unconjugated cetuximab", "value": "blocked light-dependent cell killing"},
      {"measurement": "light-dependent killing", "setting": "[3]; conjugate pre-exposed to green light, 2500 lux", "value": "exhibited light-dependent killing activity comparable"},
      {"measurement": "light-dependent killing", "setting": "[3]; conjugate pre-exposed to white light, 2500 lux", "value": "no longer exhibited light-dependent killing activity"},
      {"measurement": "light-dependent killing", "setting": "[3]; conjugate protected from light under halogen lamp", "value": "exhibited light-dependent killing"}
    ]},
    {"molecule": "cetuximab: anti-EGFR antibody cetuximab (Erbitux), not conjugated", "values": [
      {"measurement": "AUC0-∞", "setting": "[4]", "value": "24,740 μg/mL*h"}
    ]},
    {"molecule": "C=Cc1c(C)c2cc3nc(c(CC(=O)N[C@@H](CC(=O)[O-])C(=O)[O-])c4[nH]c(cc5nc(cc1[nH]2)C(C)=C5CC)c(C)c4C(=O)[O-])[C@@H](CCC(=O)[O-])[C@@H]3C.[Na+].[Na+].[Na+].[Na+]", "note": "[NPe6/Laserphyrin®, mono-L-aspartylchlorin e6]", "values": [
      {"measurement": "extinction coefficient", "setting": "[5]", "value": 40000, "unit": "M⁻¹ cm⁻¹"}
    ]},
    {"molecule": "Photofrin®", "values": [
      {"measurement": "extinction coefficient", "setting": "[5]", "value": 1200, "unit": "M⁻¹ cm⁻¹"}
    ]},
    {"molecule": "Oc1cccc(-c2c3nc(c(-c4cccc(O)c4)c4ccc([nH]4)c(-c4cccc(O)c4)c4nc(c(-c5cccc(O)c5)c5ccc2[nH]5)CC4)C=C3)c1", "note": "[Foscan®, meta-tetrahydroxyphenylchlorin]", "values": [
      {"measurement": "extinction coefficient", "setting": "[5]; 652 nm", "value": 22000, "unit": "M⁻¹ cm⁻¹"}
    ]}
  ]
}
